US20110251379A1, “COMPOUNDS USEFUL FOR TREATING NEURODEGENERATIVE DISORDERS” (Satori Pharmaceuticals, Inc., priority 2010, published 2011)
Like-named read-outs stand apart in the source and are kept apart here.

Legend:
Format in all cases: cell-based
Aβ-42 = experiment: MSD Human (6E10) Ab 3-PLEX elisa, conditioned media of 2B7 cells: Aβ-42; settings: for IC50 / inhibition at 20 µM: Homo sapiens; for inhibition at 20 µM: Aβ-42, 20 μM
Procedure: (§1) Assays were conducted to determine the ability of a Compound of Formula I to modulate […], and Aβ-38.
(§2) Plates with capture antibodies were blocked for 1-2 hours at room temperature with 150 μL of the manufactures blocking reagent.
(§3) Conditioned Media: • Cultured 2B7 cells in 96 well plate with 250 uL of media per well until confluent; • Prepared serial dilutions of compounds in DMSO at 100× the final desired concentration; • Washed wells with 2B7 cells 1× with 250 uL of media; • Diluted DMSO stocks 1:100 into media: • Added 250 μL of media containing compounds (1% DMSO) to wells with 2B7 cells for 5 hours at 37° C.
(§4) Elisa Sample Prep: • Diluted conditioned media: 1 part media with 1% DMSO and 1 part blocking buffer; • 150 μL of the 250 μL of conditioned media were used.
(§5) […] CURVE SAMPLE PREP: Prepared per manufacturer's protocol (see above) • Seven point standard curve samples were prepared that contained Aβ-42, Aβ-40, and Aβ-38. The highest concentration of Aβ-42 and Aβ-3-38 was 3,000 pg/mL and the highest concentration of Aβ-40 was 10,000 pg/mL. Subsequent serial dilutions were 1:3 and the final composition of each sample was 1 part blocking buffer and 1 part cell medium containing 1% DMSO.
(§6) Overnight Sample Incubation: • Blocked plates are washed 5× with MSD wash buffer with a plate washer • 25 uL of detection antibody and blocker G reagent in MSD blocking solution is added • 25 uL of samples (1 part conditioned media containing 1% DMSO and 1 part MSD blocking buffer) are then added. • plates are incubated overnight at 4 degrees C. or 2 hours at room temp
(§7) Final Wash and Readout: • Wash wells 5× with MSD wash buffer • Added 150 μL 2×MSD read buffer • Read with MSD imager.
(§8) A-Beta peptide levels for each peptide are calculated from the standard curve using the MSD software provided with the MSD 2400 Imager. Percent vehicle values for each compound dosage were then calculated and fit to a 4 parameter curve generating IC50 values.

Aβ-40 = experiment: MSD Human (6E10) Ab 3-PLEX elisa, conditioned media of 2B7 cells: Aβ-40; settings: for inhibition at 20 µM / IC50: Homo sapiens; for inhibition at 20 µM: Aβ-40, 20 μM
Procedure: as §1, §2, §3, §4, §5, §6, §7, §8

Aβ-38 = experiment: MSD Human (6E10) Ab 3-PLEX elisa, conditioned media of 2B7 cells: Aβ-38; settings: Homo sapiens; for IC50: Aβ-38 (superscript a)
Procedure: as §1, §2, §3, §4, §5, §6, §7, §8

[1] = Aβ-42 (superscript c), read-out: 50% reduction value
[2] = Aβ-42 (superscript c), read-out: IC50 range
[3] = Aβ-40 (superscript b), read-out: 50% reduction value
[4] = Aβ-40 (superscript b), read-out: IC50 range

Row | Structure (SMILES) | IC50 (Aβ-42; [1]) [nM] | inhibition at 20 µM (Aβ-40) [%] | IC50 (Aβ-38; read-out: 50% reduction value) [nM] | 50% reduction value (Aβ-42; Aβ-42 (superscript c)) | 50% reduction value (Aβ-40; Aβ-40 (superscript b)) | IC50 (Aβ-38; read-out: IC50 range) [nM] | IC50 (Aβ-42; [2]) [nM] | IC50 (Aβ-40; [3]) [nM] | IC50 (Aβ-40; [4]) [nM] | inhibition at 20 µM (Aβ-42) [%] | inhibition at 20 µM (Aβ-38; Aβ-38, 20 μM) [%]
1 | CO[C@@H](C1C[C@@H](C)[C@H]2C(O1)[C@H](O)[C@@]1(C)C3CC[C@H]4C(C)(C)[C@@H](O)CC[C@@]45C[C@@]35CC[C@]21C)C(C)(C)O (some centres unmarked) | < 1000 | 25 to 75 | < 1000 | – | – | – | – | – | – | – | –
2 | CNC(=O)O[C@H](C(C)C)C1C[C@@H](C)[C@H]2C(O1)[C@H](O)[C@@]1(C)C3CC[C@H]4C(C)(C)[C@@H](O)CC[C@@]45C[C@@]35CC[C@]21C (some centres unmarked) | – | – | 1000 to 10000 | G/H | H/I | < 1000 | – | – | – | – | –
3 | CC(C)[C@@H](OC(=O)N(C)C)C1C[C@@H](C)[C@H]2C(O1)[C@H](O)[C@@]1(C)C3CC[C@H]4C(C)(C)[C@@H](O)CC[C@@]45C[C@@]35CC[C@]21C (some centres unmarked) | < 10000 | – | < 1000 | – | – | 1000 to 10000 | 1000 to 10000 | 1000 to 10000 | > 10000 | – | –
4 | CC(C)C(=O)N1CCO[C@@H](O[C@H]2CC[C@]34C[C@]35CC[C@]3(C)[C@@H]6C(OC([C@H](O)C(C)C)C[C@H]6C)[C@H](O)[C@@]3(C)C5CC[C@H]4C2(C)C)C1 (some centres unmarked) | 1000 to 10000 | – | 1000 to 10000 | – | – | 1000 to 10000 | – | > 10000 | – | – | –
5 | CC(C)C(=O)N1CCO[C@@H](O[C@H]2CC[C@]34C[C@]35CC[C@]3(C)C6C(OC(CN(C)C(=O)N(C)C)C[C@H]6C)[C@H](O)[C@@]3(C)C5CC[C@H]4C2(C)C)C1 (some centres unmarked) | > 10000 | 25 to 75 | < 10000 | – | – | 1000 to 10000 | – | – | – | 25 to 75 | –
6 | CCO[C@@H](C1C[C@@H](C)[C@H]2C(O1)[C@H](O)[C@@]1(C)C3CC[C@H]4C(C)(C)[C@@H](O)CC[C@@]45C[C@@]35CC[C@]21C)C(C)(C)O (some centres unmarked) | < 1000 | 25 to 75 | < 1000 | – | – | – | < 1000 | – | < 1000 | – | 25 to 75
7 | CC(C)C(=O)N1CCO[C@@H](O[C@H]2CC[C@]34C[C@]35CC[C@]3(C)C6C(OC(CN(C)C(N)=O)C[C@H]6C)[C@H](O)[C@@]3(C)C5CC[C@H]4C2(C)C)C1 (some centres unmarked) | 1000 to 10000 | – | 1000 to 10000 | – | – | – | – | > 10000 | – | – | –
8 | CO[C@@H]([C@H]1C[C@@H](C)[C@H]2[C@H](O1)[C@H](O)[C@@]1(C)C3CC[C@H]4C(C)(C)[C@@H](O[C@H]5CN(C6COC6)CCO5)CC[C@@]45C[C@@]35CC[C@]21C)C(C)(C)O (some centres unmarked) | < 1000 | – | < 1000 | – | – | – | – | 1000 to 10000 | – | – | –
9 | CO[C@@H]([C@H]1C[C@@H](C)[C@H]2[C@H](O1)[C@H](OC)[C@@]1(C)C3CC[C@H]4C(C)(C)[C@@H](O[C@H]5CN(C6COC6)CCO5)CC[C@@]45C[C@@]35CC[C@]21C)C(C)(C)O (some centres unmarked) | – | 25 to 75 | < 1000 | – | – | – | – | – | – | 25 to 75 | –
10 | CCO[C@@H]([C@H]1C[C@@H](C)[C@H]2[C@H](O1)[C@H](O)[C@@]1(C)C3CC[C@H]4C(C)(C)[C@@H](O[C@H]5CN(C6COC6)CCO5)CC[C@@]45C[C@@]35CC[C@]21C)C(C)(C)O (some centres unmarked) | < 1000 | – | < 1000 | – | – | – | < 1000 | 1000 to 10000 | – | – | –
11 | CC(=O)OC(C)(C)C1C[C@@H](C)[C@H]2C(O1)[C@H](O)[C@@]1(C)C3CC[C@H]4C(C)(C)[C@@H](O)CC[C@@]45C[C@@]35CC[C@]21C (some centres unmarked) | > 10000 | – | 1000 to 10000 | – | – | – | – | > 10000 | – | – | –
12 | C[C@@H]1CC(COc2ncccn2)OC2C1[C@@]1(C)CC[C@@]34C[C@@]35CC[C@H](O[C@H]3CN(C6COC6)CCO3)C(C)(C)[C@@H]5CCC4[C@]1(C)[C@H]2O (some centres unmarked) | 1000 to 10000 | – | 1000 to 10000 | – | – | 1000 to 10000 | 1000 to 10000 | 1000 to 10000 | 1000 to 10000 | – | –
13 | C[C@@H]1CC(C(O)C(C)(C)C)OC2[C@H]1[C@@]1(C)CC[C@@]34C[C@@]35CC[C@H](O[C@H]3CN(C6COC6)CCO3)C(C)(C)[C@@H]5CCC4[C@]1(C)[C@H]2O (some centres unmarked) | 1000 to 10000 | – | < 1000 | – | – | < 1000 | < 1000 | < 1000 | < 1000 | – | –
14 | C[C@@H]1CC(C(O)C(C)(C)C)OC2[C@H]1[C@@]1(C)CC[C@@]34C[C@@]35CC[C@H](O)C(C)(C)[C@@H]5CCC4[C@]1(C)[C@H]2O (some centres unmarked) | – | – | 1000 to 10000 | – | – | – | – | > 10000 | – | 25 to 75 | –
15 | CC(=O)OC(C(C)C)C1C[C@@H](C)[C@H]2C(O1)[C@H](O)[C@@]1(C)C3CC[C@H]4C(C)(C)[C@@H](O[C@H]5CNCCO5)CC[C@@]45C[C@@]35CC[C@]21C (some centres unmarked) | < 1000 | – | < 1000 | – | – | < 1000 | < 1000 | 1000 to 10000 | 1000 to 10000 | – | –
